Measurements as given in patent US7495003B2, “8-(3-amino-piperidin-1-yl)-7-(but-2-ynyl)-xanthines, the preparation thereof and their use as pharmaceutical compositions” (Boehringer Ingelheim International GmbH, priority 2004, dated 2009).

Assays:
DPP-IV = biological target: T1, DPP-IV (Homo sapiens, UniProt P27487); experiment: DPP-IV assay with extract of Caco-2 cells as DPP IV source (AFC substrate, fluorescence); assay type: biochemical; details: extract of human colon carcinoma cell line Caco-2; substrate 100 μM; 60 minutes at ambient temperature; read-out: DPP IV inhibition IC50
T1 construct: an extract of the human colon carcinoma cell line Caco-2 is used as the DPP IV source; endogenous in cells; host or cells: Caco-2 (human colon carcinoma), differentiated to induce DPP-IV expression; Nonidet-P40 solubilised extract
T1 sequence (P27487 whole entry): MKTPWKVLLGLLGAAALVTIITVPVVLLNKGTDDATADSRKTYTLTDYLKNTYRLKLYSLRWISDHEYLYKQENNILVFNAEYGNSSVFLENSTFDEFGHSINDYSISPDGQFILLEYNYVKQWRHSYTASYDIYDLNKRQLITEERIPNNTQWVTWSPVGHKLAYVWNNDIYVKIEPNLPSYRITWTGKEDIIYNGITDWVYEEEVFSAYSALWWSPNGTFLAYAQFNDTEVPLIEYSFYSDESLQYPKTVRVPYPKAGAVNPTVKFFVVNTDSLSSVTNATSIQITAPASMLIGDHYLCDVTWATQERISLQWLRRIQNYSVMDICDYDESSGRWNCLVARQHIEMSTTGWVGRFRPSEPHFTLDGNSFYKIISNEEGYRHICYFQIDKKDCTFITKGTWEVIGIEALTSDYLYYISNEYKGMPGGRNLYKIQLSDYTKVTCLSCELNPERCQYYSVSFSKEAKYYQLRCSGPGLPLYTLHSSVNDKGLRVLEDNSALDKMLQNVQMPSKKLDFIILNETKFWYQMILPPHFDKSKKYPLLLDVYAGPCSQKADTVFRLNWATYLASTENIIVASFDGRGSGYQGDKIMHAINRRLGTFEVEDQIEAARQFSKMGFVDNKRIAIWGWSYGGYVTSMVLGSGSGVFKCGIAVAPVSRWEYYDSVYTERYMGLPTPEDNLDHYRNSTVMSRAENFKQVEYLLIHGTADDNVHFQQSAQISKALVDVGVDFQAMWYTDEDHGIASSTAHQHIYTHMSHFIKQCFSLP
Experimental: The differentiation of the cells in order to induce the DPP-IV expression was carried out in accordance with the description by Reiher et al. in an article entitled “Increased expression of intestinal cell line Caco-2”, which appeared in Proc. Natl. Acad. Sci. Vol. 90, pp. 5757-5761 (1993). The cell extract was obtained from cells solubilised in a buffer (10 mM Tris HCl, 0.15 M NaCl, 0.04 t.i.u. aprotinin, 0.5% Nonidet-P40, pH 8.0) by centrifugation at 35,000 g for 30 minutes at 4° C. (to remove cell debris).
The DPP-IV assay was carried out as follows:
50 μl of substrate solution (AFC; AFC is amido-4-trifluoromethylcoumarin), final concentration 100 μM, were placed in black microtitre plates. 20 μl of assay buffer (final concentrations 50 mM Tris HCl pH 7.8, 50 mM NaCl, 1% DMSO) was pipetted in. The reaction was started by the addition of 30 μl of solubilised Caco-2 protein (final concentration 0.14 μg of protein per well). The test substances under investigation were typically added prediluted to 20 μl, while the volume of assay buffer was then reduced accordingly. […] Then the fluorescence was measured in a Victor 1420 Multilabel Counter, with the excitation wavelength at 405 nm and the emission wavelength at 535 nm. […] The potency of the test substances in question, expressed as IC50 values, were calculated from dosage/activity curves consisting of 11 measured points in each case.

rats = experiment: Tolerability in rats after oral administration; assay type: in vivo; details: oral administration of 10 mg/kg

Row | Compound | IC50 (DPP-IV) [nM] | toxic side effects (rats)
1 | CC#CCn1c(N2CCC[C@@H](N)C2)nc2c1c(=O)n(Cc1nc(C)c3ccccc3n1)c(=O)n2CC(=O)OCC [1(3), (R)-1-(4-methyl-quinazolin-2-ylmethyl)-3-(ethoxycarbonylmethyl)-7-(but-2-ynyl)-8-(3-amino-piperidin-1-yl)-xanthine] | 3 | 
2 | CC#CCn1c(N2CCC[C@@H](N)C2)nc2c1c(=O)n(Cc1nc(C)c3ccccc3n1)c(=O)n2CC(=O)OC [Example 1(2), (R)-1-(4-methyl-quinazolin-2-ylmethyl)-3-(methoxycarbonylmethyl)-7-(but-2-ynyl)-8-(3-amino-piperidin-1-yl)-xanthine] | 3 | no toxic side effects could be detected
